Assay [1] has as its target T1, ALK2 R206H (GST-tagged mutant ALK2) (Homo sapiens, UniProt Q04771, R206H).
T1 construct: purchased Carna Bioscience or ThermoFisher 09-148 or PV6232
T1 sequence (Q04771 21-509 R206H): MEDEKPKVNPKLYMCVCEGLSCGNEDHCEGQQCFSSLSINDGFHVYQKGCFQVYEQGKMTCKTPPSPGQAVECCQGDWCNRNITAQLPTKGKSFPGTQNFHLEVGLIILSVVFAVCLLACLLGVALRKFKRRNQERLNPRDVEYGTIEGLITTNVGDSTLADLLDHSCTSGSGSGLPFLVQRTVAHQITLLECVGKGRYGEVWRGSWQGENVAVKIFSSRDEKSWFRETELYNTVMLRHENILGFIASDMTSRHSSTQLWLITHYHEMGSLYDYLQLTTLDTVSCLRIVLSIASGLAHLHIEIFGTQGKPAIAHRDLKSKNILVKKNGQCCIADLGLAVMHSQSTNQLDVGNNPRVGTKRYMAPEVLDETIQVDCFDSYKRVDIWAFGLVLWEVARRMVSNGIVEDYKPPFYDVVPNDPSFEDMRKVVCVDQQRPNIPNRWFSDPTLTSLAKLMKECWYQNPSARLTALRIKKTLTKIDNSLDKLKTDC
Nature of the assay: ALK binding assay (LANTHASCREEN TR-FRET competitive binding, displacement of Kinase Tracer 178). Particulars: ALK2 R206H, LANTHASCREEN TR-FRET competitive binding; read-out: Binding Assay (IC50). In general terms: TR-FRET usually uses a lanthanide donor and a delayed reading to cut background.

The target in assay [2] is T2, human ALK2 R206H (Homo sapiens, UniProt Q04771, R206H).
T2 construct: expressed in transfected cells; host or cells: HEK293 (ATCC CRL1573), lentivirus transduction, blasticidin selection
T2 sequence (Q04771 21-509 R206H): T1 sequence (Q04771 21-509 R206H)
Nature of the assay: Cell-based ALK2-R206H cell activity assay (Smad1-Ser463/Ser465 phosphorylation by AlphaLISA in HEK293-ALK2-R206H cells). Particulars: read-out: Cell Line (Cell Assay IC50). Summed up:
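Stable HEK293 cells expressing C-terminally FLAG-tagged human ALK2 R206H (lentiviral, blasticidin-selected) were treated with compounds in 10-point, 3-fold dilutions from 10 μM or 1 μM top, in duplicate. Smad1 Ser463/Ser465 phosphorylation was read by AlphaLISA.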
For orientation: In Alpha technology, singlet oxygen from a donor bead excites a nearby acceptor bead.

Structures are written as SMILES.

This is an account of results in US10233186B2, “Inhibitors of activin receptor-like kinase” (BLUEPRINT MEDICINES CORPORATION, priority 2016, dated 2019).

One may read the IC50 as the concentration needed to halve the response being measured. For `CC(C)N1CC[C@](O)(c2ccc(-c3cc4c(N5CCN(C(=O)C6CC6)CC5)ccnn4c3)nc2)C1` [Compound 527], the IC50 in assay [1] is below 10 nM; in assay [2], below 100 nM.
Taken in the same sequence, the figures for `O=C(C1CC1)N1CCN(c2ccnn3cc(-c4ccc(O[C@@H]5CCCNC5)cc4)cc23)CC1` [Compound 162] were below 10 nM and below 100 nM.
The corresponding values for `CCN1CCC(c2ccc(-c3cc4c(N5CCN(C(=O)N6CCC(O)CC6)CC5)ccnn4c3)cc2)CC1` [Compound 423] are below 10 nM and 100 to 500 nM.
The corresponding values for `CC(C)NC(=O)N1CCN(c2ccnn3cc(-c4ccc(C5(C(F)(F)F)CCNCC5)cc4)cc23)CC1` [Compound 823] are below 10 nM and below 100 nM.
As to `CC(C)N1CCc2cc(-c3cc4c(N5CCN(C(=O)C6CC6)CC5)ccnn4c3)sc2C1` [Compound 187], the results for the IC50 in assay [1] and in assay [2] were below 10 nM and below 100 nM, respectively.
For `CCN1C[C@@H]2CN(c3ccnn4cc(-c5ccc(N6CCN(C(C)C)CC6)cc5)cc34)CCN2C1=O` [Compound 330], the values for the IC50 in assay [1] and in assay [2] were below 10 nM and 100 to 500 nM, respectively.
The corresponding values for `CO[C@]1(c2ccc(-c3cc4c(N5CCN(C(=O)NC(C)C)CC5)ccnn4c3)nc2)CCCN(C(C)C)C1` [Compound 687] are below 10 nM and below 100 nM.
On to `CC(C)N1C[C@@H](c2ccc(-c3cc4c(N5CCN(C(=O)C6CC6)CC5)ccnn4c3)cc2)C[C@H]1C` [Compound 505], for which the results for the IC50 in assay [1] and in assay [2] were below 10 nM and below 100 nM, respectively.
Taken in the same sequence, the figures for `O=C(C1CC1)N1CCN(c2ccnn3cc(-c4ccc(C5CCCCN5)cc4)cc23)CC1` (centres unmarked) [Compound 125] were below 10 nM and below 100 nM.
Taken in the same sequence, the figures for `COC1(c2ccc(-c3cc4c(N5CCN(C(=O)NC(C)C)CC5)ccnn4c3)nc2)CCN(C2COC2)CC1` [Compound 714] were below 10 nM and below 100 nM.
For `CC(C)N1CCC(c2ccc(-c3cc4c(N5CCN(C(=O)SC6COC6)CC5)ccnn4c3)cc2)CC1` [Compound 832], the half-maximal inhibitory concentration (IC50) was below 10 nM in assay [1] and below 100 nM in assay [2].
Taken in the same sequence, the figures for `CCNC(=O)N1CCN(c2ccnn3cc(-c4ccc([C@H]5CCCN5C(C)C)nc4)cc23)CC1` [Compound 497] were below 10 nM and below 100 nM.
Taken in the same sequence, the figures for `O=C(C1CC1)N1CCN(c2ccnn3cc(-c4ccc(N5CC6(CNC6)C5)cc4)cc23)CC1` [Compound 146] were below 10 nM and 100 to 500 nM.
Taken in the same sequence, the figures for `O=C([C@@H]1C[C@H]1F)N1CCN(c2ccnn3cc(-c4ccc(N5CCNCC5)nc4)cc23)CC1` [Compound 186] were below 10 nM and 100 to 500 nM.
On to `CCN1CC2(C1)CN(c1ccc(-c3cc4c(N5CCN(C(=O)N6CC(C#N)C6)CC5)ccnn4c3)cc1)C2` [Compound 404], for which the 50% inhibitory concentration (IC50) was below 10 nM in assay [1] and 100 to 500 nM in assay [2].
Taken in the same sequence, the figures for `CCN1CCN(c2ccc(-c3cc4c(N5CCN(C(=O)C6CC(C)(O)C6)CC5)ccnn4c3)cc2)CC1` (centres unmarked) [Compound 391] were below 10 nM and below 100 nM.
The corresponding values for `CCN1CC[C@@H](c2ccc(-c3cc4c(N5CCN(C(=O)N6CC(C#N)C6)CC5)ccnn4c3)cc2)C1` [Compound 303] are below 10 nM and below 100 nM.
Taken in the same sequence, the figures for `CCNC(=O)N1CCN(c2ccnn3cc(-c4ccc(C5(OC)CCN(C(C)C)CC5)cc4)cc23)CC1` [Compound 399] were below 10 nM and below 100 nM.
Regarding `CC(C)N1CC[C@@H](c2ccc(-c3cc4c(N5CCN(C(=O)C6CC6)CC5)ccnn4c3)cc2)C1` [Compound 203], the half-inhibitory concentration (IC50) is below 10 nM in assay [1] and below 100 nM in assay [2].
For the compound `N#C[C@H]1CC[C@H](C(=O)N2CCN(c3ccnn4cc(-c5ccc(N6CCNCC6)cc5)cc34)CC2)CC1` [Compound 371], the IC50 was below 10 nM in assay [1] and below 100 nM in assay [2].
Taken in the same sequence, the figures for `CC(C)N1CCC[C@@H](c2ccc(-c3cc4c(N5CCN(C(=O)OC6COC6)CC5)ccnn4c3)nc2)C1` [Compound 635] were below 10 nM and below 100 nM.
As for `O=C(OC(CO)CO)N1CCN(c2ccnn3cc(-c4ccc(C5CCNCC5)cc4)cc23)CC1` [Compound 789, 1,3-dihydroxypropan-2-yl 4-(6-(4-(piperidin-4-yl)phenyl)pyrrolo[1,2-b]pyridazin-4-yl)piperazine-1-carboxylate], the concentration for half-maximal inhibition (IC50) in assay [1] is below 10 nM; in assay [2], above 500 nM.
The corresponding values for `COC1(c2ccc(-c3cc4c(N5CCN(C(=O)C6CC6)CC5)ccnn4c3)c(C#N)c2)CCN(C(C)C)CC1` [Compound 839] are below 10 nM and below 100 nM.
The corresponding values for `O=C(C1CC1)N1CCN(c2ccnn3cc(-c4ccc(OC5CNC5)cc4)cc23)CC1` [Compound 115] are below 10 nM and 100 to 500 nM.
As for `CC(C)[C@@H](C)NC(=O)N1CCN(c2ccnn3cc(-c4ccc(C5CCN(C(C)C)CC5)cc4)cc23)CC1` [Compound 663], the IC50 in assay [1] was below 10 nM; in assay [2], below 100 nM.
The corresponding values for `C[C@]1(c2ccc(-c3cc4c(N5CCN(C(=O)C6CC6)CC5)ccnn4c3)cc2)CCCN1` [Compound 459] are below 10 nM and below 100 nM.
Taken in the same sequence, the figures for `CC(C)N1CCC(c2ccc(-c3cc4c(N5CCN(C(=O)[C@H]6C[C@@H]6C#N)[C@H](C)C5)ccnn4c3)cc2)CC1` [Compound 407] were below 10 nM and below 100 nM.
The corresponding values for `CC(C)N1CCC(c2ccc(-c3cc4c(N5CCN(C(=O)OCC6COC6)CC5)ccnn4c3)cc2)CC1` [Compound 665] are below 10 nM and below 100 nM.
In the case of `CC(C)N1CCC(c2ccc(-c3cc4c(N5CCN(C(=O)[C@H]6CC[C@H](C#N)CC6)CC5)ccnn4c3)nc2)CC1` [Compound 437], the values for the concentration for half-maximal inhibition (IC50) in assay [1] and in assay [2] were below 10 nM and below 100 nM, respectively.
Taken in the same sequence, the figures for `CCN1CCN(c2ccc(-c3cc4c(N5CCN(C(=O)C6CC6)CC5)ccnn4c3)cc2)C(=O)C1` [Compound 259] were 10 to 50 nM and above 500 nM.
`COC1(c2ccc(-c3cc4c(N5CCN(C(=O)OC6COC6)CC5)ccnn4c3)nc2)CCN([C@H](C)COC(F)F)CC1` [Compound 898]: the IC50 in assay [1] was below 10 nM; in assay [2], below 100 nM.
The corresponding values for `CO[C@]1(c2ccc(-c3cc4c(N5CCN(C(=O)OC6COC6)CC5)ccnn4c3)cc2)CCCNC1` [Compound 601] are below 10 nM and below 100 nM.
The corresponding values for `O=C(C1CC1)N1CCN(c2ccnn3cc(-c4ccc([C@H]5CNCCO5)cc4)cc23)CC1` [Compound 130, (S)-cyclopropyl(4-(6-(4-(morpholin-2-yl)phenyl)pyrrolo[1,2-b]pyridazin-4-yl)piperazin-1-yl)methanone] are below 10 nM and 100 to 500 nM.
The corresponding values for `CCN1CCC(c2ccc(-c3cc4c(N5CCN(C(=O)N6CC(C#N)C6)CC5)ccnn4c3)cc2)C1` (centres unmarked) [Compound 300, 1-(4-(6-(4-(1-ethylpyrrolidin-3-yl)phenyl)pyrrolo[1,2-b]pyridazin-4-yl)piperazine-1-carbonyl)azetidine-3-carbonitrile] are below 10 nM and below 100 nM.
For the compound `CC(C)N1CCC(c2ccc(-c3cc4c(N5CCN(C(=O)Nc6ccccc6F)CC5)ccnn4c3)cc2)CC1` [Compound 851], the half-inhibitory concentration (IC50) in assay [1] was below 10 nM; in assay [2], 100 to 500 nM.
Taken in the same sequence, the figures for `CCO[C@]1(c2ccc(-c3cc4c(N5CCN(C(=O)OC6COC6)CC5)ccnn4c3)nc2)CCCNC1` [Compound 818] were below 10 nM and below 100 nM.
On to `CCNC(=O)N1CCN(c2ccnn3cc(-c4ccc([C@@H]5CNCCO5)cc4)cc23)CC1` [Compound 142], for which the results for the IC50 in assay [1] and in assay [2] were below 10 nM and 100 to 500 nM, respectively.
Regarding `CCN1CCN(c2ccc(-c3cc4c(N5CCN(C(=O)[C@H]6CC[C@H](C#N)CC6)CC5)ccnn4c3)cc2)CC1` [Compound 429], the values for the half-inhibitory concentration (IC50) in assay [1] and in assay [2] were below 10 nM and below 100 nM, respectively.
Taken in the same sequence, the figures for `COC1(c2ccc(-c3cc4c(N5CCN(C(=O)OC6COC6)CC5)ccnn4c3)cc2)CCN([C@@H](C)COC(F)F)CC1` [Compound 896] were below 10 nM and below 100 nM.
Taken in the same sequence, the figures for `COC1(c2ccc(-c3cc4c(N5CCN(C(=O)C6CC6)CC5)ccnn4c3)nc2)CCN([C@H](C)COC(F)F)CC1` [Compound 885] were below 10 nM and below 100 nM.
Taken in the same sequence, the figures for `CCN1CCN(c2ccc(-c3cc4c(N5CCN(C(=O)C6(c7cccc(Cl)c7)CC6)CC5)ccnn4c3)cc2)CC1` [Compound 447] were 10 to 50 nM and above 500 nM.
For the compound `CC(C)NC(=O)N1CCN(c2ccnn3cc(-c4cnn([C@@H]5CCCN(C(C)C)C5)c4)cc23)CC1` [Compound 556], the results for the IC50 in assay [1] and in assay [2] were below 10 nM and below 100 nM, respectively.
Taken in the same sequence, the figures for `COC[C@@H](C)N1CCC(OC)(c2ccc(-c3cc4c(N5CCN(C(=O)NC(C)C)CC5)ccnn4c3)nc2)CC1` [Compound 735] were below 10 nM and below 100 nM.
